Results from publication PMC9864776, “Synthesis of Novel Polymer-Assisted Organic-Inorganic Hybrid Nanoflowers and Their Application in Cascade Biocatalysis” (Molecules, 2023).

Target: T1, horseradish peroxidase (HRP) (Armoracia rusticana, UniProt P00433)
T1 construct: gene PRXC1A; commercial native enzyme from horseradish, Alfa Aesar; free in solution, together with GOx
T1 sequence (P00433 31-338): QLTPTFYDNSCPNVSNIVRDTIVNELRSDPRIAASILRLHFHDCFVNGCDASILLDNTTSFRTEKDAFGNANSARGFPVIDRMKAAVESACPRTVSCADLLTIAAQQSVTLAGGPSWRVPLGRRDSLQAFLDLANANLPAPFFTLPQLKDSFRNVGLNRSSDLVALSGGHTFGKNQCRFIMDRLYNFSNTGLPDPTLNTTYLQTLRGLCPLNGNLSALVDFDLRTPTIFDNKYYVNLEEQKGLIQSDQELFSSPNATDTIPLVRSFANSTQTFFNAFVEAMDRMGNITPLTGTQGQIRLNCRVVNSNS
Test: GOx/HRP cascade, TMB oxidation by H2O2 formed by GOx, absorbance at […] nm
Type: biochemical
Conditions: H2O2 from GOx and glucose, 0.2 M acetate buffer pH 4, 20-23 °C; free enzymes

Compound: Cc1cc(-c2cc(C)c(N)c(C)c2)cc(C)c1N [TMB, 3,3′,5,5′-tetramethylbenzidine]
- GOx/HRP cascade, TMB oxidation by H2O2 formed by GOx, absorbance at 652 nm: the HRP used this H2O2 to oxidize a chromophore compound (TMB)
